ChEMBL document CHEMBL3988442, “University of Dundee, Small-Polar-MMV Screening Library” (2021)
“And” between values parts separate entries of the source, which are not always exact repeats. Identical values can stand only once.

Columns and labels:
Wolbachia pipientis = assay: Anti-Wolbachia Cell-Based Screen; format: functional; conditions: for IC50: Wolbachia pipientis
[1] = microbe, parasite or virus in culture; conditions: Mycobacterium tuberculosis, 96 h, read-out: pIC50 (converted)
[2] = microbe, parasite or virus in culture; conditions: Mycobacterium tuberculosis, 72 h, read-out: pIC50 (converted)

SMILES	pIC50 (Wolbachia pipientis)	IC50 (Wolbachia pipientis) [µM]	IC50 [1] [µM]	IC50 [2] [µM]
Fc1ccc(CN2CCCC(c3cc4ncccc4[nH]3)C2)cc1 (centres undefined)	5.047	6.78	24.3	33.7
Cc1ccc(CSc2nc(N)cc(NCCS(=O)(=O)N(C)C)n2)cc1	5.214	4.21	–	–
CCOCCCC(=O)NCc1ccc(N2CCCCC2)cc1	–	> 10	–	–
CC(C(=O)N1CCCN(Cc2cnn(C)c2)CC1)n1ccnc1 (centres undefined)	–	> 10	–	–
CSc1ccc(NCc2csc(C)n2)cc1F	5.126	5.53	–	–
CCOc1nnc(CN2CCN(CCOC)CC2)s1	–	> 10	–	–
Cc1noc(-c2ccnc(Oc3ccc(CN4CCCC4)cc3C)c2)n1	5.704 and 5.368	–	–	–
Cc1cnn(CC2CCCCN2C(=O)c2ccc(CN(C)C)cc2)c1 (centres undefined)	–	> 10	–	–
COc1c(CNCC(O)COc2ccc3c(c2)OCO3)c(C)nn1C (centres undefined)	–	> 10	–	–
Fc1ccc(N2CCCN(Cc3ccc(-c4cc[nH]n4)o3)CC2)cc1	5.26	6.44	–	–
Cc1n[nH]c(C)c1CCC(=O)N(C)Cc1cn[nH]c1-c1ccc(F)cc1	5.21	5.81	–	–
O=c1oc(-c2cccs2)nn1CC(O)c1ccc2c(c1)CCC2 (centres undefined)	–	> 10	–	–
Cc1cc(NC(=O)CN2CCn3c(nnc3C3CC3)C2)on1	–	> 10	–	–
Cc1nc2cc(-c3nccn3C)nn2c(N2CCCC2)c1C	< 5	9.95	–	–
O=C(NCCCn1cncn1)N1CCCCCC1	–	> 10	–	–
CCOc1ncccc1C(=O)N1CCCC1c1c(C)nn(C)c1OC (centres undefined)	–	> 10	–	–
CC(=O)N(Cc1noc(C2CC2)n1)C1CCN(Cc2cccnc2)C1 (centres undefined)	–	> 10	–	–
Cc1ccc(CSc2nc(N)cc(NCCC(=O)N3CCCC3)n2)cc1	5.181	4.89	–	–
CC(C)Cn1ncc2cc(C(=O)N(C)Cc3cccc(O)c3)cnc21	–	> 10	–	–
O=C(CNC(=O)c1ccc(Cl)cc1)Nc1nccs1	5.243	3.56	–	–
Cn1cc(CN2C[C@@H]3CCC[C@@H](OCc4cccnc4)[C@@H]3C2)cn1	–	> 10	–	–
O=C(CCc1ccc(Cl)s1)N1CCC(N2CCNC2=O)CC1	–	> 10	–	–
Cc1csc(Nc2nccnc2C2CCCN2S(C)(=O)=O)n1 (centres undefined)	–	> 10	–	–
COc1ccccc1OCCN(C)c1cc(C)nc(N)n1	–	> 10	–	–
CC(C(=O)N1CCCN(Cc2ccc(C#N)cc2)CC1)n1cncn1 (centres undefined)	–	> 10	–	–
COCC(=O)Nc1ccc(-c2noc([C@@H]3CCCN3C(C)C)n2)cn1	5.079	8.83	–	–

SMILES	pIC50 (Wolbachia pipientis)	IC50 (Wolbachia pipientis) [µM]	IC50 [1] [µM]	IC50 [2] [µM]
Cc1nc(N2CCC3(CCOC3)C2)c2cc[nH]c2n1 (centres undefined)	5.537	2.38	–	–
CC(C)[C@@H]1CN(C2CCN(Cc3ccccc3)CC2)C[C@H]1NS(C)(=O)=O	5.381	3.75	–	–
Cc1nn(C)c(C)c1C(=O)NCc1ccnc(OCC(F)(F)F)c1	–	> 10	–	–
CC(C)Cc1cc(C(=O)NCC2CCCN(Cc3ccco3)C2)on1 (centres undefined)	5.687	1.41	–	–
CCOCCCn1c(NC(=O)c2cnc(C)s2)nc2ccccc21	–	> 10	–	–
CCc1c(C)nc2cc(-c3nccn3C)nn2c1N1CCCC(CO)C1 (centres undefined)	5.187	5.95	–	–
O=C(CCc1ccccc1Cl)NS(=O)(=O)c1ccc2c(c1)OCCO2	–	> 10	–	–
CCC(CC)C(O)CNC(=O)Nc1cc(C)nn1C (centres undefined)	–	> 10	–	–
CO[C@H]1CCN(c2nnc(C)s2)C[C@@H]1Cc1cccc(C)c1.O=C(O)C(F)(F)F	5.267	3.74	16.7	41.7
O=C(NCCN1CCOCC1)N(CCCO)C1CCCc2ccccc21 (centres undefined)	–	> 10	–	–
COCCCN1Cc2cccc(NC(=O)C(C)(C)C)c2C1	–	> 10	–	–
O=C(O)C(F)(F)F.O=C(O)C(F)(F)F.c1cncc(-c2ccc3c(c2)CCC32CCN(Cc3ccco3)CC2)c1	6.473	0.404	28.7	20.5
CC(C)Cn1ncc2cc(C(=O)N(C)CCc3ccccc3)cnc21	–	> 10	–	–
Cc1cc(NC(=O)NCC(O)c2ccc(F)c(F)c2)n(C)n1 (centres undefined)	–	> 10	–	–
Cc1c(CNCC(C)Oc2cccnc2)c2ccccc2n1CC(N)=O (centres undefined)	–	> 10	–	–
NS(=O)(=O)c1cnn(CCC(=O)N(Cc2ccccc2)C2CC2)c1	–	> 10	–	–
COc1ncccc1C(=O)N1CCc2c(ncnc2N2CCOCC2)C1	–	> 10	–	–
CCOCCCn1c(NC(=O)c2cnc(C)cn2)nc2ccccc21	5.233	5.75	–	–
CC(C)N1c2sc(-c3ccsc3)nc2CC1C(=O)NC1CCCC1 (centres undefined)	5.095	7.14	–	–
Cc1cc(N(Cc2cccs2)C2CC2)n2nc(C(F)(F)F)nc2n1	6.155 and 6.458	–	–	–
Cc1cc2nc(C(C)C)cc(NCC(c3ccccn3)N(C)C)n2n1 (centres undefined)	5.809	1.75	–	–
c1ccc(O[C@H]2COCCN(Cc3c[nH]c4ccccc34)C2)cc1	5.37	6.98	–	–
COc1cc(CNC(=O)c2c(C)noc2C)ccn1	–	> 10	–	–
CCCS(=O)(=O)N1CCN(c2cc(-n3nc(C)cc3C)nc(C)n2)CC1	–	> 10	–	–
Cc1nnc(N2CCCC3(CN(Cc4nccs4)CCO3)C2)o1 (centres undefined)	–	> 10	–	–
Cc1cc(CN2CCCC2)cc(Oc2nc(C)cnc2C)c1	–	> 10	–	–

SMILES	pIC50 (Wolbachia pipientis)	IC50 (Wolbachia pipientis) [µM]	IC50 [1] [µM]	IC50 [2] [µM]
CN1CCC/C1=N\S(=O)(=O)c1ccc(NC(=O)c2ccc(Cl)s2)cc1	–	> 10	–	–
O=C(Nc1ccnc(OC2CCOC2)c1)c1ccccc1Cl (centres undefined)	5.461 and 5.05	–	–	–
CCC(CC)C(=O)N1CCCc2c(cnn2C)C1	5.338	5.15	–	–
CC(c1ccco1)N(C)Cc1cccc(C(=O)Nc2nccn2C)c1 (centres undefined)	5.538	3.77	–	–
CCc1cc(C(=O)N2CCC3(CCCN(CC4CC4)C3=O)C2)cs1 (centres undefined)	–	> 10	–	–
O=C(O)C(F)(F)F.O=C(O)c1c(-c2cccnc2)ncc2c1CCN(CC1CCOC1)C2 (centres undefined)	< 5	7.49	–	–
Cc1cccc(N2CCN(C(=O)c3c(C)nn(C)c3C)CC2)c1C	5.626	2.32	–	–
CC(c1ccco1)N(C(=O)c1cc2c([nH]c1=O)CCCC2=O)C1CC1 (centres undefined)	–	> 10	–	–
c1ccc(-c2nnc(N3CCCC4(CCOC4)C3)s2)cc1 (centres undefined)	5.105	> 10	–	–
CCn1c(CNC(=O)Nc2nc(C)c(C)o2)nc2ccccc21	5.724	1.91	–	–
CCc1ccc(CN(C)Cc2nc(COc3ccccc3)no2)nc1	5.105	9.16	–	–
CCOc1ccc2nc(NC(=O)c3c(C(=O)O)cnn3C)sc2c1	5.956	1.47	–	–
Cc1ccccc1C1CN(c2cnn(C)c(=O)c2Cl)CCO1 (centres undefined)	5.107	7.69	–	–
CC(C)c1cc(CSCCC(=O)O)no1	5.282	3.09	–	–
CC(CNC1CCN(c2ccccn2)CC1)Oc1ccc(F)cc1 (centres undefined)	–	> 10	–	–
CC(=O)NC(C)c1ccc(OCC2CC2)c(F)c1 (centres undefined)	5.914	1.47	–	–
Cc1nn(C)c(C)c1C1CCCN1Cc1nc2ccccc2o1 (centres undefined)	5.128	> 10	–	–
O=C(Nc1ccccn1)NC(CCCO)c1ccccc1 (centres undefined)	< 5	6.17	–	–
c1cnnc(N2CCCC2CNCc2csc(-c3ccco3)n2)c1 (centres undefined)	–	> 10	–	–
Cc1nn(C)c2nc(N3CCCCC3c3ccc(F)cc3)sc12 (centres undefined)	5.674	2.24	–	–
Cc1ccccc1CNC(=O)Cn1nc(-c2ccc(F)cc2)oc1=O	–	> 10	–	–
CCc1cc(N(C)Cc2cc[nH]n2)n2nc(C)c(C)c2n1	5.579	4.79	–	–
CC(C)C(C(=O)N1CCCN(Cc2nccn2C)CC1)N1CCCC1 (centres undefined)	–	> 10	–	–
Cc1nn(C)c2nc(N(Cc3nccs3)C3CC3)sc12	5.592	2.9	–	–
CCC(C)n1cnc(S(=O)(=O)N(Cc2cccnc2)C(C)C)c1 (centres undefined)	–	> 10	–	–
c1cc(CN2CCc3cncnc3C2)c2c(c1)OCCO2	5.26	> 10	–	–

SMILES	pIC50 (Wolbachia pipientis)	IC50 (Wolbachia pipientis) [µM]	IC50 [1] [µM]	IC50 [2] [µM]
Cn1c(=O)n(C)c2cc(C3SCC(=O)Nc4ccsc43)ccc21 (centres undefined)	5.481	2.44	–	–
CCn1cc(NC(=O)c2cccc(CN3C[C@@H](C)O[C@@H](C)C3)c2)nn1	< 5	8.23	–	–
Cc1csc(CCCNC(=O)NC2CC(=O)N(C(C)(C)C)C2)n1 (centres undefined)	–	> 10	–	–
FC(F)(F)c1nc(NC2CCCCC2)c2ccccc2n1	5.146 and 5.539	–	–	–
c1ccc(-c2nc(CN3CCCC3Cn3cncn3)no2)cc1 (centres undefined)	–	> 10	–	–
Cc1nn(C)c2nc(N3CCCCC3c3cccnc3)sc12 (centres undefined)	6.07	1.24	–	–
CC1(C(=O)N2CCN(c3ncccn3)CC2)CNCCO1 (centres undefined)	–	> 10	–	–
CCc1nc(C)sc1CN1CCc2[nH]nc(-c3ccc(F)c(F)c3)c2C1	5.065	4.91	–	–
Cn1nccc1C(=O)N1CCCC2(CCN(c3ccsc3)C2=O)C1 (centres undefined)	–	> 10	–	–
CCc1cc(N(C)Cc2nonc2C)nc(N(C)C)n1	5.613	1.92	–	–
c1cnn(CC2CCCN2c2ncnc3ccsc23)c1 (centres undefined)	5.454	3.17	–	–
Cc1nn(C)c(C)c1CN(C)c1nc(C2CC2)nc2c(C)nn(C)c12	5.529	2.65	–	–
Cc1ccc(-c2nc(CN3CCn4c(C)nnc4C3)cs2)o1	–	> 10	–	–
Cc1cc(C)n(CC2CCCN2C(=O)CCc2ccco2)n1 (centres undefined)	–	> 10	–	–
Cc1nn(C)c2nc(N3CCCC3c3nccs3)sc12 (centres undefined)	5.818	1.82	–	–
CCc1ccc(CN(C(=O)CCn2cc(S(N)(=O)=O)cn2)C2CC2)cc1	–	> 10	–	–
Cc1ccc(C(=O)N2CCC3(CC2)CN(CCN(C)C)C(=O)O3)c(F)c1	5.079	> 10	–	–
CN(C)C(=O)[C@H]1C[C@@H]2CN(S(=O)(=O)Cc3ccccc3)C[C@H]1O2	–	> 10	–	–
N#Cc1cc(F)c(NCc2ccc(F)cc2)c(F)c1	–	> 10	–	–
COCc1noc(-c2ccc(N(C)Cc3ncccc3C)nc2)n1	5.66	3.11	–	–
COc1ccc(C(C)N(C)Cc2c(C(C)C)[nH]c3ncccc23)cc1 (centres undefined)	–	> 10	–	–
COc1ccc(Br)c(C(=O)NCC2CC2)c1	–	> 10	–	–
O=C(CC1CC1)NCc1cc(=O)n2c(n1)CN(Cc1ccoc1)CCC2	–	> 10	–	–
O=C1CC(c2ccc3ccccc3n2)c2c(n[nH]c2C2CCC2)N1 (centres undefined)	–	> 10	–	–
